Measured values published in patent US11518785B2, “Peptide showing melanogenesis promoting activity and use thereof” (CAREGEN CO., LTD., priority 2017, dated 2022).
Several values for one entry are separate records, joined by “and”; a condition that tells them apart may be missing. Equal values may be shown once.

Columns and labels:
Assay type in all cases: cell-based, mouse
[1] = system: TRP1 mRNA in B16F10 cell line; assay: RT-PCR of melanogenesis-related genes: TRP1; settings: B16F10 treated with the peptide, 72 hours, result in words
Description: (§1) Melanocytes (B16F10 cell line) were seeded on 6-well culture plates at the density of 5×10^4 cells/well and incubated in an incubator for 24 hours. Then, the medium was replaced with […], and the cells were treated with the peptides of the present invention with different concentrations and cultured for 72 hours. Next, after RNA extraction of cells and quantification, cDNA was synthesized by using the cDNA synthesis kit (Intron, Korea). […] Then, degrees of mRNA expression of the growth factors under each sample treatment conditions were compared by running the resultants on a 5% agarose gel, and the results are shown in FIGS. 3, 8, and 13.

[2] = system: CREB phosphorylation in B16F10 cell line; assay: Melanogenesis-related protein activity assay (CREB phosphorylation, western blotting); settings: B16F10 treated with the peptide, 48-hour incubation, result in words
Description: Melanocytes (B16F10 cell line) were seeded on 6-well culture plates at the density of 5×10^4 cells/well and incubated in an incubator for 24 hours, and the cells were treated with the peptides of the present invention with different concentrations. After 48-hour incubation, the cells were lysed, and the cells were subjected to western blotting using specific antibodies (Cell Signaling Technology, USA) to investigate the phosphorylation level of CREB, which is a signaling substance involved in melanogenesis.

[3] = system: MITF and tyrosinase protein in B16F10 cell line; assay: Western blotting of melanogenesis-related proteins; settings: B16F10 treated with the peptide, 72-hour incubation, result in words
Description: Melanocytes (B16F10 cell line) were seeded on 6-well culture plates at the density of 5×10^4 cells/well and incubated in an incubator for 24 hours, and the cells were treated with the peptides of the present invention with different concentrations. After 72-hour incubation, the cells were lysed, and the cells were subjected to western blotting using antibodies (antacruz biotechnology, USA) each specific to MITF and tyrosinase, which are the factors involved in melanogenesis.

[4] = system: tyrosinase mRNA in B16F10 cell line; assay: RT-PCR of melanogenesis-related genes: tyrosinase; settings: B16F10 treated with the peptide, 72 hours, result in words
Description: as §1

[5] = system: MITF mRNA in B16F10 cell line; assay: RT-PCR of melanogenesis-related genes: MITF; settings: B16F10 treated with the peptide, 72 hours, result in words
Description: as §1

[6] = system: melanocytes (B16F10 cell line); assay: Melanogenesis assay (melanin content); settings: for Melanin content (%): B16F10, 72 hours, control group = 100; for melanogenesis: mouse melanin cell line B16F10 treated with the peptide, result in words
Description: After seeding melanocytes (B16F10 cell line) in 6-well plates at the density of 5×10^4 cells/well, the melanocytes were cultured in an incubator at a temperature of 37° C. for 24 hours, and the medium of each plate was removed and replaced with 2% serum-containing media, followed by treatment with the present peptide at different concentrations and then incubation of 72 hours.
Then, the culture medium was removed, and the cells were taken off and then transferred into 1.5-ml tubes, followed by centrifugation at 13,000 rpm for 3 minutes to remove the supernatant. Next, cell pellets were collected to observe melanin. 150 μl of 1 N NaOH was added to the cell pellets to lyse intracellular melanin at a temperature of 60° C. for 30 minutes.

[7] = system: tyrosinase in melanoma cell line (B16F10) cells; assay: Tyrosinase activity assay in lysates of treated cells (L-DOPA); settings: for Tyrosinase activity (%): B16F10, 72 hours, control group = 100; for tyrosinase activity: mouse melanin cell line B16F10 treated with the peptide, result in words
Description: Melanoma cell line (B16F10) cells were cultured in 6-well culture plates for 24 hours, and treated with the peptide with different concentrations, followed by culture for 72 hours. The 6-well culture plates were loaded on ice and washed with cool PBS, and then 300 μl of 0.1 M sodium phosphate buffer (pH 6.8, lysis buffer) containing 1% Triton X-100 was added. The cells were collected in 1.5-ml tubes, and then cell membranes were disrupted by repeating five times rapid-freezing at […] and thawing. After centrifugation at 15,000 rpm for 10 minutes, the supernatant was collected in other 1.5-mL tubes, and the protein of the samples was quantified. The samples were diluted to have the same protein concentration and then dispensed in every three wells in 96-well culture plates, and then 20 μl of 10 mM L-DOPA was added, followed by incubation at 37° C. for 1 hour The blank and positive control were as shown in Table 5.
Then, the absorbance was measured at 475 nm, and the results are shown in FIGS. 2, 7, and 12, and Tables 6 to 8.

FCLGPCPYIWSL [SEQ ID NO: 1]
mRNA expression of TRP1 [1]: increased | phosphorylation level of CREB [2]: increased | protein expression involved in the process of melanogenesis (MITF, tyrosinase) [3]: increased | mRNA expression of tyrosinase [4]: increased | mRNA expression of MITF [5]: increased | Melanin content (%) ([6]; 10 μM peptide): 125% | Melanin content (%) ([6]; 50 μM peptide): 264% | melanogenesis [6]: increased | Tyrosinase activity (%) ([7]; 10 μM peptide): 157% | Tyrosinase activity (%) ([7]; 50 μM peptide): 201% | tyrosinase activity [7]: increased

KVTAMRCFLL [SEQ ID NO: 2]
mRNA expression of TRP1 [1]: increased | phosphorylation level of CREB [2]: increased | protein expression involved in the process of melanogenesis (MITF, tyrosinase) [3]: increased | mRNA expression of tyrosinase [4]: increased | mRNA expression of MITF [5]: increased | Melanin content (%) ([6]; 10 μM peptide): 109% | Melanin content (%) ([6]; 50 μM peptide): 155% | melanogenesis [6]: increased | Tyrosinase activity (%) ([7]; 10 μM peptide): 144% | Tyrosinase activity (%) ([7]; 50 μM peptide): 189% | tyrosinase activity [7]: increased

RVTAMRCFLL [SEQ ID NO: 3]
mRNA expression of TRP1 [1]: increased | phosphorylation level of CREB [2]: increased | protein expression involved in the process of melanogenesis (MITF, tyrosinase) [3]: increased | mRNA expression of tyrosinase [4]: increased | mRNA expression of MITF [5]: increased | Melanin content (%) ([6]; 10 μM peptide): 106% | Melanin content (%) ([6]; 50 μM peptide): 164% | melanogenesis [6]: increased | Tyrosinase activity (%) ([7]; 10 μM peptide): 114% | Tyrosinase activity (%) ([7]; 50 μM peptide): 173% | tyrosinase activity [7]: increased

α-melanocyte stimulating hormone [a-MSH, reference compound]
Tyrosinase activity (%) ([7]; 200 nM a-MSH): 467% and 484%
